Data published in patent US5284853A, “Angiotensin II receptor blocking 2,3,6 substituted quinazolinones” (American Cyanamid Company, priority 1993, dated 1994).
Where “and” joins values, the source holds several entries; their conditions need not be identical. Equal values may be shown once.

Tests used:
[1] = test system: Angiotensin II (AII) vasopressor response; assay: AII Challenge: antagonism of the angiotensin II vasopressor response in conscious SHR; assay type: in vivo, Spontaneously hypertensive rats (Male okamoto-Aoki SHR); details: 5 mg/kg I.V.; for Average Change / Inhibition: n = 2; for Change / Control Before AII / Response After AII: per rat
Source text: […] Conscious Male okamoto-Aoki SHR, 16-20 weeks old, weighing approximately 330 g are purchased from Charles River Labs (Wilmington, MA). Conscious rats are restrained in a supine position with elastic tape. The area at the base of the tail is locally anesthetized by subcutaneous infiltration with 2% procaine. […] The cannula is secured, heparinized (1,000 I.U./ml), sealed and the wound is closed. The animals are placed in plastic restraining cages in an upright position. The cannula is attached to a Statham P23Db pressure transducer, and pulsatile blood pressure is recorded to 10-15 minutes with a Gould Brush recorder. (Chan et al., (Drug Development Res., 18:75-94, 1989). […] Co., St. […] […] […] […] […] A compound is considered active if at 30 mg/kg i.v. it antagonized at least 50% of the response.

Angiotensin II Receptor = biological target: T1, Angiotensin II Receptor (Bos taurus, UniProt P25104); assay: Receptor binding assay: competition of [^125 I](Sar^1,Ile^8)AngII binding to beef adrenal cortex microsomal membranes; details: 60 min, room temperature, pH 7.4
T1 construct: The brownish tissue forming the adrenal cortex is scraped off and finely minced with scissors before homogenization; tissue local slaughter house (Maxwell-Cohen); host or cells: beef adrenal cortex, microsomal membranes (100,000×g pellet)
T1 sequence (P25104 1-359): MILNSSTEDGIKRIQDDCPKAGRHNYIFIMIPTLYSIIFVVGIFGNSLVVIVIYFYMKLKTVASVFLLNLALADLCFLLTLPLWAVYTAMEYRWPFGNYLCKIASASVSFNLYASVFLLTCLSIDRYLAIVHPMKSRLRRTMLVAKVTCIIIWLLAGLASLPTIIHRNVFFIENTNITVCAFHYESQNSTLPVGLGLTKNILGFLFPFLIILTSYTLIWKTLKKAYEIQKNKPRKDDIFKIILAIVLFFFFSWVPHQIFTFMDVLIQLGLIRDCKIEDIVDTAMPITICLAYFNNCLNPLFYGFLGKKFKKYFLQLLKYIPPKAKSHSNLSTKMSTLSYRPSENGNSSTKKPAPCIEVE
Source text: Beef adrenals are obtained from a local slaughter house (Maxwell-Cohen). [^125 […]. 2200 Ci/mmole, is purchased from Dupont (KEN@, Boston, Mass.). All unlabeled AngII analogs, Dimethylsulfoxide (DMSO), nucleotides, bovine serum albumin (BBA) are purchased from Sigma Chemical Co., St. Louis, MO U.S.A. Approximately sixteen (16) to twenty (20) beef adrenal glands are processed as follows: fresh adrenal glands received on crushed ice are cleaned of fatty tissues and the tough membranes encapsulating the glands are removed and discarded. The brownish tissue forming the adrenal cortex is scraped off and finely minced with scissors before homogenization care is taken to avoid contamination with medullary tissue during dissection. […] Unless otherwise indicated, all subsequent operations are done at […]. […] The homogenate is centrifuged first at low speed (3,000×g) for 10 min. […] This P2 pellet is discarded and the liquid phase is carefully decanted off in clean centrifuge tubes and recentrifuged at high speed (100,000×g) for 60 min. The translucent final pellet is harvested and combined in a small volume (20-50.0 ml) of […] Tris.HCl buffer, pH 7.2. A 100 ul aliquot is withdrawn and the protein content of the preparation is determined by the Lowry's method (Lowry, O. H., Rosebrough, N. P., Parr, A. L. and Randall, R. J., Protein measurement with Folin phenol reagent. J. Biol. Chem., […], 265-275, 1951). The pelleted membrane is reconstituted in 50.0 mM Tris.HCl buffer containing 0.1 mM of phenylmethylsulfonyl fluoride (PMSF) to give approximately a protein concentration of 2.5 mg per ml of tissue suspension. […] In competition studies, experimental compounds are diluted in dimethylsulfoxide (DMSO) and added in 20 ul to wells before the introduction of tissue membranes. This concentration of DMSO is found to have no negative effects on the binding of [^125 I] ([…] to the membranes. Assays are performed in triplicate. The wells are left undisturbed for 60 min. at room temperature. Following incubation, all wells are harvested at once with a Brandel® Harvester especially designed for a 96 well plate (Brandel® Biomedical Research & Development Labs. Inc., Gaithersburg, MD, U.S.A.). The filter discs are washed with 10×1.0 ml of cold 0.9% NaCl to remove unbound ligand. Presoaking the filter sheet in 0.1% polyethyleneimine in normal saline (PEI/Saline) greatly reduces the radioactivity retained by the filter blanks. This method is routinely used. The filters are removed from the filter grid and counted in a Parkard® Cobra Gamma Counter for 1 min. (Packard Instrument Co., Downers Grove, Ill, U.S.A.). The binding data are analyzed by the non-linear interactive "LUNDON-11" program (LUNDON SOFTWARE Inc., Cleveland, OH U.S.A.).

[2] = AII 0.05 mcg/kg IV, 30 min post dose
[3] = AII 0.05 mcg/kg IV, 60 min post dose
[4] = AII 0.05 mcg/kg IV, 90 min post dose
[5] = AII 0.05 mcg/kg IV, 180 min post dose
[6] = AII 0.1 mcg/kg IV, 30 min post dose
[7] = AII 0.1 mcg/kg IV, 60 min post dose
[8] = AII 0.1 mcg/kg IV, 90 min post dose
[9] = AII 0.1 mcg/kg IV, 120 min post dose
[10] = AII 0.1 mcg/kg IV, 180 min post dose
[11] = AII 0.5 mcg/kg IV, 120 min post dose

CCCCc1nc2ccc(C3CC(c4ccc(C)s4)=NO3)cc2c(=O)n1Cc1ccc(-c2ccccc2-c2nnn[nH]2)cc1 (stereo not drawn) [Example 21]
Average Change [1, 2]: 13.5 mmhg | Inhibition [1, 2]: 72% | Change [1, 2]: 17 mmhg and 10 mmhg | Control Before AII [1, 2]: 188 mmhg and 180 mmhg | Response After AII [1, 2]: 205 mmhg and 190 mmhg | Average Change [1, 3]: 25 mmhg | Inhibition [1, 3]: 47% | Change [1, 3]: 35 mmhg and 15 mmhg | Control Before AII [1, 3]: 175 mmhg | Response After AII [1, 3]: 210 mmhg and 190 mmhg | Average Change [1, 4]: 24 mmhg | Inhibition [1, 4]: 49% | Change [1, 4]: 25 mmhg and 23 mmhg | Control Before AII [1, 4]: 170 mmhg and 157 mmhg | Response After AII [1, 4]: 195 mmhg and 180 mmhg | Average Change [1, 5]: 30 mmhg | Inhibition [1, 5]: 37% | Change [1, 5]: 40 mmhg and 20 mmhg | Control Before AII [1, 5]: 170 mmhg and 160 mmhg | Response After AII [1, 5]: 210 mmhg and 180 mmhg | Average Change [1, 6]: 27.5 mmhg | Inhibition [1, 6]: 41% | Change [1, 6]: 30 mmhg and 25 mmhg | Control Before AII [1, 6]: 180 mmhg and 175 mmhg | Response After AII [1, 6]: 210 mmhg and 200 mmhg | Average Change [1, 7]: 34 mmhg | Inhibition [1, 7]: 28% | Change [1, 7]: 38 mmhg and 30 mmhg | Control Before AII [1, 7]: 175 mmhg and 165 mmhg | Response After AII [1, 7]: 213 mmhg and 195 mmhg | Average Change [1, 8]: 31 mmhg | Inhibition [1, 8]: 34% | Change [1, 8]: 40 mmhg and 22 mmhg | Control Before AII [1, 8]: 175 mmhg and 163 mmhg | Response After AII [1, 8]: 215 mmhg and 185 mmhg | Average Change [1, 9]: 31.5 mmhg | Inhibition [1, 9]: 33% | Change [1, 9]: 40 mmhg and 23 mmhg | Control Before AII [1, 9]: 175 mmhg and 160 mmhg | Response After AII [1, 9]: 215 mmhg and 183 mmhg | Average Change [1, 10]: 40 mmhg | Inhibition [1, 10]: 15% | Change [1, 10]: 50 mmhg and 30 mmhg | Control Before AII [1, 10]: 175 mmhg and 160 mmhg | Response After AII [1, 10]: 225 mmhg and 190 mmhg | Average Change [1, 11]: 27.5 mmhg | Inhibition [1, 11]: 42% | Change [1, 11]: 35 mmhg and 20 mmhg | Control Before AII [1, 11]: 185 mmhg and 160 mmhg | Response After AII [1, 11]: 220 mmhg and 180 mmhg | IC50 (Angiotensin II Receptor): 330 nM
